Publication PMC3726442 (PLoS ONE, 2013)

Columns and labels:
[1] = tested on: estrogen receptor; conditions: cited from earlier work
[2] = Plasma concentrations of tamoxifen and its metabolites in breast cancer patients on tamoxifen, by HPLC-tandem mass spectrometry
[3] = cited from earlier work
[4] = all samples analyzed, n = 125, before daily 20 mg TAM dose

SMILES: CC/C(=C(\c1ccc(O)cc1)c1ccc(OCCNC)cc1)c1ccccc1 [Endoxifen, N-desmethyl-4-hydroxy-tamoxifen]
- estrogen receptor affinity relative to TAM [1]: 100 fold
- endoxifen levels in wt/wt CYP2D6 relative to v/v CYP2D6 patients ([2]; CYP2D6 genotype subgroups, Figure 1): over two-fold
- mean plasma concentration (±SD) [2, 4]: 24.75 ± 19.37 ng/mL
- median plasma concentration [2, 4]: 19.11 ng/mL
- mean concentration relative to the 4OH-TAM mean concentration ([2]; all samples, n = 125): almost three times
- plasma concentration, mean ±SD ([2]; genotype CYP2D6 I/I, n = 1): 9.53 ± 0.00 ng/mL
- plasma concentration, median ([2]; genotype CYP2D6 I/I, n = 1): 9.53 ng/mL
- plasma concentration, range ([2]; genotype CYP2D6 I/I, n = 1): (9.53–9.53) ng/mL
- plasma concentration, mean ±SD ([2]; genotype CYP2D6 I/P, n = 8): 12.01 ± 5.84 ng/mL
- plasma concentration, median ([2]; genotype CYP2D6 I/P, n = 8): 10.00 ng/mL
- plasma concentration, range ([2]; genotype CYP2D6 I/P, n = 8): (4.46–21.02) ng/mL
- plasma concentration, mean ±SD ([2]; genotype CYP2D6 P/P, n = 2): 8.71 ± 6.41 ng/mL
- plasma concentration, median ([2]; genotype CYP2D6 P/P, n = 2): 8.71 ng/mL
- plasma concentration, range ([2]; genotype CYP2D6 P/P, n = 2): (4.18–13.24) ng/mL
- plasma concentration, mean ±SD ([2]; genotype CYP2D6 wt/I, n = 4): 26.87 ± 17.31 ng/mL
- plasma concentration, median ([2]; genotype CYP2D6 wt/I, n = 4): 20.64 ng/mL
- plasma concentration, range ([2]; genotype CYP2D6 wt/I, n = 4): (14.01–52.20) ng/mL
- plasma concentration, mean ±SD ([2]; genotype CYP2D6 wt/P, n = 26): 23.76 ± 25.21 ng/mL
- plasma concentration, median ([2]; genotype CYP2D6 wt/P, n = 26): 14.57 ng/mL
- plasma concentration, range ([2]; genotype CYP2D6 wt/P, n = 26): (5.01–107.10) ng/mL
- plasma concentration, mean ±SD ([2]; genotype CYP2D6 wt/wt, n = 78): 26.47 ± 17.89 ng/mL
- plasma concentration, median ([2]; genotype CYP2D6 wt/wt, n = 78): 21.21 ng/mL
- plasma concentration, range ([2]; genotype CYP2D6 wt/wt, n = 78): (4.03–95.87) ng/mL
- plasma concentration, mean ±SD ([2]; genotype CYP2D6 wtxN/P, n = 2): 36.09 ± 32.08 ng/mL
- plasma concentration, median ([2]; genotype CYP2D6 wtxN/P, n = 2): 36.09 ng/mL
- plasma concentration, range ([2]; genotype CYP2D6 wtxN/P, n = 2): (13.40–58.77) ng/mL
- plasma concentration, mean ±SD ([2]; genotype CYP3A4 wt/*1B, n = 3): 22.31 ± 10.86 ng/mL
- plasma concentration, median ([2]; genotype CYP3A4 wt/*1B, n = 3): 26.69 ng/mL
- plasma concentration, range ([2]; genotype CYP3A4 wt/*1B, n = 3): (9.95–30.30) ng/mL
- plasma concentration, mean ±SD ([2]; genotype CYP3A4 wt/*3, n = 2): 49.15 ± 21.86 ng/mL
- plasma concentration, median ([2]; genotype CYP3A4 wt/*3, n = 2): 49.15 ng/mL
- plasma concentration, range ([2]; genotype CYP3A4 wt/*3, n = 2): (33.69–64.61) ng/mL
- plasma concentration, mean ±SD ([2]; genotype CYP3A4 wt/*17, n = 9): 19.86 ± 24.88 ng/mL
- plasma concentration, median ([2]; genotype CYP3A4 wt/*17, n = 9): 11.94 ng/mL
- plasma concentration, range ([2]; genotype CYP3A4 wt/*17, n = 9): (4.46–84.57) ng/mL
- plasma concentration, mean ±SD ([2]; genotype CYP3A4 wt/wt, n = 107): 24.80 ± 19.03 ng/mL
- plasma concentration, median ([2]; genotype CYP3A4 wt/wt, n = 107): 19.12 ng/mL
- plasma concentration, range ([2]; genotype CYP3A4 wt/wt, n = 107): (4.03–107.10) ng/mL
- plasma concentration, mean ±SD ([2]; genotype CYP3A5 *3/*3, n = 117): 25.10 ± 19.66 ng/mL
- plasma concentration, median ([2]; genotype CYP3A5 *3/*3, n = 117): 19.12 ng/mL
- plasma concentration, range ([2]; genotype CYP3A5 *3/*3, n = 117): (4.03–107.10) ng/mL
- plasma concentration, mean ±SD ([2]; genotype CYP3A5 wt/*3, n = 6): 14.14 ± 7.56 ng/mL
- plasma concentration, median ([2]; genotype CYP3A5 wt/*3, n = 6): 13.61 ng/mL
- plasma concentration, range ([2]; genotype CYP3A5 wt/*3, n = 6): (5.40–23.01) ng/mL
- plasma concentration, mean ±SD ([2]; genotype SULT1A1 *2/*2, n = 15): 28.68 ± 24.18 ng/mL
- plasma concentration, median ([2]; genotype SULT1A1 *2/*2, n = 15): 19.82 ng/mL
- plasma concentration, range ([2]; genotype SULT1A1 *2/*2, n = 15): (4.57–95.87) ng/mL
- plasma concentration, mean ±SD ([2]; genotype SULT1A1 wt/*2, n = 46): 26.59 ± 19.97 ng/mL
- plasma concentration, median ([2]; genotype SULT1A1 wt/*2, n = 46): 22.58 ng/mL
- plasma concentration, range ([2]; genotype SULT1A1 wt/*2, n = 46): (4.18–107.10) ng/mL
- plasma concentration, mean ±SD ([2]; genotype SULT1A1 wt/wt, n = 60): 22.43 ± 17.79 ng/mL
- plasma concentration, median ([2]; genotype SULT1A1 wt/wt, n = 60): 17.47 ng/mL
- plasma concentration, range ([2]; genotype SULT1A1 wt/wt, n = 60): (4.03–89.98) ng/mL
- plasma concentration, mean ±SD ([2]; genotype SULT1A2 *2/*2, n = 16): 26.59 ± 23.20 ng/mL
- plasma concentration, median ([2]; genotype SULT1A2 *2/*2, n = 16): 20.76 ng/mL
- plasma concentration, range ([2]; genotype SULT1A2 *2/*2, n = 16): (4.18–95.87) ng/mL
- plasma concentration, mean ±SD ([2]; genotype SULT1A2 *2/*3, n = 13): 34.61 ± 20.35 ng/mL
- plasma concentration, median ([2]; genotype SULT1A2 *2/*3, n = 13): 32.02 ng/mL
- plasma concentration, range ([2]; genotype SULT1A2 *2/*3, n = 13): (8.94–74.06) ng/mL
- plasma concentration, mean ±SD ([2]; genotype SULT1A2 *3/*3, n = 5): 27.34 ± 21.30 ng/mL
- plasma concentration, median ([2]; genotype SULT1A2 *3/*3, n = 5): 21.02 ng/mL
- plasma concentration, range ([2]; genotype SULT1A2 *3/*3, n = 5): (12.13–64.61) ng/mL
- plasma concentration, mean ±SD ([2]; genotype SULT1A2 wt/*2, n = 33): 28.84 ± 23.78 ng/mL
- plasma concentration, median ([2]; genotype SULT1A2 wt/*2, n = 33): 23.22 ng/mL
- plasma concentration, range ([2]; genotype SULT1A2 wt/*2, n = 33): (4.46–107.10) ng/mL
- plasma concentration, mean ±SD ([2]; genotype SULT1A2 wt/*3, n = 16): 23.99 ± 15.32 ng/mL
- plasma concentration, median ([2]; genotype SULT1A2 wt/*3, n = 16): 19.02 ng/mL
- plasma concentration, range ([2]; genotype SULT1A2 wt/*3, n = 16): (7.80–51.61) ng/mL
- plasma concentration, mean ±SD ([2]; genotype SULT1A2 wt/wt, n = 38): 17.21 ± 11.79 ng/mL
- plasma concentration, median ([2]; genotype SULT1A2 wt/wt, n = 38): 14.78 ng/mL
- plasma concentration, range ([2]; genotype SULT1A2 wt/wt, n = 38): (4.03–58.77) ng/mL
- plasma concentration, mean ±SD ([2]; genotype SULT1E1 *2/*2, n = 5): 16.05 ± 8.07 ng/mL
- plasma concentration, median ([2]; genotype SULT1E1 *2/*2, n = 5): 20.60 ng/mL
- plasma concentration, range ([2]; genotype SULT1E1 *2/*2, n = 5): (6.74–23.01) ng/mL
- plasma concentration, mean ±SD ([2]; genotype SULT1E1 wt/*2, n = 28): 24.30 ± 20.87 ng/mL
- plasma concentration, median ([2]; genotype SULT1E1 wt/*2, n = 28): 18.04 ng/mL
- plasma concentration, range ([2]; genotype SULT1E1 wt/*2, n = 28): (4.18–95.87) ng/mL
- plasma concentration, mean ±SD ([2]; genotype SULT1E1 wt/wt, n = 88): 25.41 ± 19.51 ng/mL
- plasma concentration, median ([2]; genotype SULT1E1 wt/wt, n = 88): 19.12 ng/mL
- plasma concentration, range ([2]; genotype SULT1E1 wt/wt, n = 88): (4.03–107.10) ng/mL
- mean plasma concentration (±SD) ([2]; patients not receiving CYP2D6 inhibitors): 25.30 ± 19.39 ng/mL
- mean plasma concentration (±SD) ([2]; patients receiving CYP2D6 inhibitors concomitantly with TAM): 15.55 ± 17.77 ng/mL
- serum levels relative to 4OH-TAM [3]: 10 fold
